Reference: patent publication US12180193B2, “Accelerating fibrosarcoma protein degrading compounds and associated methods of use” (Arvinas Operations, Inc., priority 2020, dated 2024)

What was measured:
BRAF V600E = molecular target: T1, BRAF V600E (Homo sapiens, UniProt P15056, V600E); assay: Cellular assay of target protein degradation, T-Rex 293 cells stably transfected with HA-BRAF_V600E (HA immunofluorescence, high content imaging); format: cell-based; conditions: T-Rex 293 HA-BRAF V600E; for DC50: half maximal degradation, read-out: BRaf V600E DC50; for Dmax: maximum degradation observed
T1 construct: expressed in transfected cells
T1 sequence (P15056 whole entry V600E): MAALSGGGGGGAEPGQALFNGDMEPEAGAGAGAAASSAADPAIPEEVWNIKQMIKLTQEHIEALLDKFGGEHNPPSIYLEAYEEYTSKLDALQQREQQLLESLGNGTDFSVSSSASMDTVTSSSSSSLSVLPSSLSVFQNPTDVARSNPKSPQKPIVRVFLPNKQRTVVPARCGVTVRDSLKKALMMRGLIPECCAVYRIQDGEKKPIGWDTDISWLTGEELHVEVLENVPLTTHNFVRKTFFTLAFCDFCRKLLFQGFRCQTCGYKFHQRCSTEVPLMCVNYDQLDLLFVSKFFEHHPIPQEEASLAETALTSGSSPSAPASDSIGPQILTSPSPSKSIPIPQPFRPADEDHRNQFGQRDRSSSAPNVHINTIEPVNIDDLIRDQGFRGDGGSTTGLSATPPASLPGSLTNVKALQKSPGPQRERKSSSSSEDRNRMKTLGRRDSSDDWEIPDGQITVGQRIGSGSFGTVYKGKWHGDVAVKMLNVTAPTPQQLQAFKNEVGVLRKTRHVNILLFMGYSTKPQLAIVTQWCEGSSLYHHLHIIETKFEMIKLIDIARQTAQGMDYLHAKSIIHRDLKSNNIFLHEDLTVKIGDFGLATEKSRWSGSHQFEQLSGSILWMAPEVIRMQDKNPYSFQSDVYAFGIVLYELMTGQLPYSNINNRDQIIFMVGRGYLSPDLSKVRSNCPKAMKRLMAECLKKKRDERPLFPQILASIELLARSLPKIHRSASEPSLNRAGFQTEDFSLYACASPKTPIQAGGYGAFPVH
Experimental: Protocol for a cellular assay of target protein degradation (T-Rex 293 cells). T-Rex 293 cells were purchased from Invitrogen (#R71007), and stably transfected with a pcDNA4/TO_HA-BRAF_V600E construct, using 400 ug Zeocin for selection. V600e cells are plated in Dulbecco's Modified Eagle Medium (DMEM; Gibco #11965118) containing 10% fetal bovine serum (FBS; Gibco #16000044) and 1 ng/mL doxycycline (Selleckchem #4163) at a density of 5,000 cells/well in 50 μl on poly-D-lysine (PDL) coated, black clear bottom 96-well plates (Corning #354640) and incubated for 24 hours at 37° C. with 5% C02. The following day 50 ul of tested compound was added at 2x concentration in DMEM with a final concentration ranging from 1 μM to 0.1 nM in 0.1% dimethylsulfoxide (DMSO), and incubated for 24 hours at 37° C. with 5% CO2. At the end of the experimental treatment, the media was flicked off and cells washed once with phosphate-buffered saline (PBS)++ (PBS with CaCl and MgCl) and gently replacing with 200 μl PBS++ per well. The PBS++ was removed and 50 uL 4% paraformaldehyde (PFA; EMS #15710) in PBS++ was added, and incubate at room temperature for 15 minutes. Cells were washed once with PBS++ and 50 uL 0.1% Triton X-100 (Fisher #BP151-500) in PBS++ was added. Plate was incubate for 5 minutes at room temperature. Cells were was once with PBS++. Cells were blocked with 100 uL Licor blocking buffer (Licor #927-50000) for 1 hour at room temperature. Next, 50 uL of HA antibody (CST #3724) at 1:1000 in Licor blocking buffer was added, and the plate incubate overnight at 4° C. The plates were parafilmed to prevent evaporation. Plate was washed three times with 200 uL PBS++. Fifty microliters of HCS secondary antibody solution [1:1000 Hoechst (Invitrogen #H3570), 1:1000 phalloidin (Invitrogen #A22287) and 1:5000 Alexa fluor (Invitrogen #A11008)] was added and incubated for 1 hour. Plate was wash three times with 200 uL PBS++, and imaged on a high content reader (ImageXpress Micro XLS, Molecular Devices).
(§1) The concentration of exemplary compound that leads to half maximal degradation (DC50) as well as the maximum degradation observed (Dmax, conventionally expressed as a percentage of control), which are below in Table 2 for the exemplary compounds of Table 1.

BRAF G466V = molecular target: T2, BRAF G466V (Homo sapiens, UniProt P15056, G466V); assay: Cellular assay of target protein degradation, T-Rex 293 cells stably transfected with HA-BRAF G466V (HA immunofluorescence, high content imaging); format: cell-based; conditions: T-Rex 293 HA-BRAF G466V; for DC50: half maximal degradation, read-out: BRaf G466V DC50; for Dmax: maximum degradation observed
T2 construct: expressed in transfected cells
T2 sequence (P15056 whole entry G466V): as the sequence (P15056 whole entry V600E) above, with G466V, E600V counted along it
Experimental: Protocol for a cellular assay of target protein degradation (T-Rex 293 cells). T-Rex 293 cells were purchased from Invitrogen (#R71007), and stably transfected with a pcDNA4/TO_HA-BRAF G466V construct, using 400 ug Zeocin for selection. G466V cells are plated in Dulbecco's Modified Eagle Medium (DMEM; Gibco #11965118) containing 10% fetal bovine serum (FBS; Gibco #16000044) and 0.75 ng/mL doxycycline (Selleckchem #4163) at a density of 5,000 cells/well in 50 μl on poly-D-lysine (PDL) coated, black clear bottom 96-well plates (Corning #354640) and incubated for 24 hours at 37° C. with 5% CO2. The following day 50 ul of tested compound was added at 2x concentration in DMEM with a final concentration ranging from 30 nM to 3 pM in 0.1% dimethylsulfoxide (DMSO), and incubated for 24 hours at 37° C. with 5% CO2. At the end of the experimental treatment, the media was flicked off and cells washed once with phosphate-buffered saline (PBS)++ (PBS with CaCl and MgCl) and gently replacing with 200 μl PBS++ per well. The PBS++ was removed and 50 uL 4% paraformaldehyde (PFA; EMS #15710) in PBS++ was added, and incubate at room temperature for 15 minutes. Cells were washed once with PBS++ and 50 uL 0.1% Triton X-100 (Fisher #BP151-500) in PBS++ was added. Plate was incubate for 5 minutes at room temperature. Cells were was once with PBS++. Cells were blocked with 100 uL Licor blocking buffer (Licor #927-50000) for 1 hour at room temperature. Next, 50 uL of HA antibody (CST #3724) at 1:1000 in Licor blocking buffer was added, and the plate incubate overnight at 4° C. The plates were parafilmed to prevent evaporation. Plate was washed three times with 200 uL PBS++. Fifty microliters of HCS secondary antibody solution [1:1000 Hoechst (Invitrogen #H3570), 1:1000 phalloidin (Invitrogen #A22287) and 1:5000 Alexa fluor (Invitrogen #A11008)] was added and incubated for 1 hour. Plate was wash three times with 200 uL PBS++, and imaged on a high content reader (ImageXpress Micro XLS, Molecular Devices).
as §1

`O=C1CCC(N2Cc3cc(N4CC5(CC(CN6CCc7cc(-c8cnc9[nH]cc(C(=O)c%10c(F)ccc(NS(=O)(=O)N%11CC[C@@H](F)C%11)c%10F)c9c8)ccc7C6)C5)C4)ccc3C2=O)C(=O)N1` (stereo partly drawn) [Compound 8, (3R)-N-(3-{5-[2-({2-[2-(2,6-dioxopiperidin-3-yl)-1-oxo-2,3-dihydro-1H-isoindol-5-yl]-2-azaspiro[3.3]heptan-6-yl}methyl)-1,2,3,4-tetrahydroisoquinolin-6-yl]-1H-pyrrolo[2,3-b]pyridine-3-carbonyl}-2,4-difluorophenyl)-3-fluoropyrrolidine-1-sulfonamide] was tested, and the DC50 (BRAF V600E) was 5 to 50 nM, the Dmax (BRAF V600E) was 35 to 70% and the DC50 (BRAF G466V) was 10 to 30 nM. For the same compound, the Dmax (BRAF G466V) was 35 to 70%.

In the case of `O=C1CCC(N2Cc3cc(N4CCC5(CCN(CCc6ccc(-c7cnc8[nH]cc(C(=O)c9c(F)ccc(NS(=O)(=O)N%10CC[C@@H](F)C%10)c9F)c8c7)cc6)CC5)C4)ccc3C2=O)C(=O)N1` (stereo partly drawn) [Compound 10, (3R)-N-(3-{5-[4-(2-{2-[2-(2,6-dioxopiperidin-3-yl)-1-oxo-2,3-dihydro-1H-isoindol-5-yl]-2,8-diazaspiro[4.5]decan-8-yl}ethyl)phenyl]-1H-pyrrolo[2,3-b]pyridine-3-carbonyl}-2,4-difluorophenyl)-3-fluoropyrrolidine-1-sulfonamide], the DC50 (BRAF V600E) is reported as 5 to 50 nM, the Dmax (BRAF V600E) is reported as 35 to 70% and the DC50 (BRAF G466V) is reported as under 1 nM. For the same compound, the Dmax (BRAF G466V) was 35 to 70%.

Compound `O=C1CCC(N2Cc3cc(N4CCC(CN5CCN(c6ccc(-c7cnc8[nH]cc(C(=O)c9c(F)ccc(NS(=O)(=O)N%10CC[C@@H](F)C%10)c9F)c8c7)cc6F)CC5)CC4)ccc3C2=O)C(=O)N1` (stereo partly drawn) [Compound 11, (3R)-N-[3-(5-{4-[4-({1-[2-(2,6-dioxopiperidin-3-yl)-1-oxo-2,3-dihydro-1H-isoindol-5-yl]piperidin-4-yl}methyl)piperazin-1-yl]-3-fluorophenyl}-1H-pyrrolo[2,3-b]pyridine-3-carbonyl)-2,4-difluorophenyl]-3-fluoropyrrolidine-1-sulfonamide] has a DC50 (BRAF V600E) of 5 to 50 nM, a Dmax (BRAF V600E) of 35 to 70% and a DC50 (BRAF G466V) of under 1 nM. For the same compound, the Dmax (BRAF G466V) was 35 to 70%.

Work on `COc1cc(N2CC3(C2)CN(CC2CCN(c4ccc(-c5cnc6[nH]cc(C(=O)c7c(F)ccc(NS(=O)(=O)N8CC[C@@H](F)C8)c7F)c6c5)cc4)CC2)[C@H]3C)cc2c1C(=O)N(C1CCC(=O)NC1=O)C2` (stereo partly drawn) [Compound 12, (3R)-N-(3-{5-[4-(4-{[(1S)-6-[2-(2,6-dioxopiperidin-3-yl)-7-methoxy-1-oxo-2,3-dihydro-1H-isoindol-5-yl]-1-methyl-2,6-diazaspiro[3.3]heptan-2-yl]methyl}piperidin-1-yl)phenyl]-1H-pyrrolo[2,3-b]pyridine-3-carbonyl}-2,4-difluorophenyl)-3-fluoropyrrolidine-1-sulfonamide] yielded a DC50 (BRAF V600E) of 5 to 50 nM, a Dmax (BRAF V600E) of over 70% and a DC50 (BRAF G466V) of 1 to 10 nM. It also gave a Dmax (BRAF G466V) of 35 to 70%.

Compound `O=C1CCC(N2Cc3cc(O[C@H]4C[C@@]5(COCCN5CC5CCN(c6ccc(-c7cnc8[nH]cc(C(=O)c9c(F)ccc(NS(=O)(=O)N%10CC[C@@H](F)C%10)c9F)c8c7)cc6)CC5)C4)ccc3C2=O)C(=O)N1` (stereo partly drawn) [Compound 13, (3R)-N-(2,4-difluoro-3-{5-[4-(4-{[(2r,4r)-2-{[2-(2,6-dioxopiperidin-3-yl)-1-oxo-2,3-dihydro-1H-isoindol-5-yl]oxy}-8-oxa-5-azaspiro[3.5]nonan-5-yl]methyl}piperidin-1-yl)phenyl]-1H-pyrrolo[2,3-b]pyridin-3-carbonyl}phenyl)-3-fluoropyrrolidine-1-sulfonamide] has a DC50 (BRAF V600E) of over 500 nM, a Dmax (BRAF V600E) of over 70% and a DC50 (BRAF G466V) of 10 to 30 nM. It also gave a Dmax (BRAF G466V) of 35 to 70%.

Work on `O=C1CCC(N2Cc3cc(O[C@H]4C[C@]5(COCCN5CC5CCN(c6ccc(-c7cnc8[nH]cc(C(=O)c9c(F)ccc(NS(=O)(=O)N%10CC[C@@H](F)C%10)c9F)c8c7)cc6)CC5)C4)ccc3C2=O)C(=O)N1` (stereo partly drawn) [Compound 14, (3R)-N-(2,4-difluoro-3-{5-[4-(4-{[(2s,4s)-2-{[2-(2,6-dioxopiperidin-3-yl)-1-oxo-2,3-dihydro-1H-isoindol-5-yl]oxy}-8-oxa-5-azaspiro[3.5]nonan-5-yl]methyl}piperidin-1-yl)phenyl]-1H-pyrrolo[2,3-b]pyridine-3-carbonyl}phenyl)-3-fluoropyrrolidine-1-sulfonamide] yielded a DC50 (BRAF V600E) of over 500 nM, a Dmax (BRAF V600E) of 35 to 70% and a Dmax (BRAF G466V) of under 35%.

For `O=C1CCC(N2Cc3cc(N4CC[C@@H]4COc4ccc(-c5cnc6[nH]cc(C(=O)c7c(F)ccc(NS(=O)(=O)N8CC[C@@H](F)C8)c7F)c6c5)cc4)ccc3C2=O)C(=O)N1` (stereo partly drawn) [Compound 15, (3R)-N-{3-[5-(4-{[(2R)-1-[2-(2,6-dioxopiperidin-3-yl)-1-oxo-2,3-dihydro-1H-isoindol-5-yl]azetidin-2-yl]methoxy}phenyl)-1H-pyrrolo[2,3-b]pyridine-3-carbonyl]-2,4-difluorophenyl}-3-fluoropyrrolidine-1-sulfonamide], the DC50 (BRAF V600E) was over 500 nM and the DC50 (BRAF G466V) was over 30 nM.

With `O=C1CCC(N2Cc3cc(N4CCC(N5C[C@@H]6C[C@H]5CN(c5ccc(-c7cnc8[nH]cc(C(=O)c9c(F)ccc(NS(=O)(=O)N%10CC[C@@H](F)C%10)c9F)c8c7)cc5)C6)CC4)ccc3C2=O)C(=O)N1` (stereo partly drawn) [Compound 16, (3R)-N-[3-(5-{4-[(1S,5S)-6-{1-[2-(2,6-dioxopiperidin-3-yl)-1-oxo-2,3-dihydro-1H-isoindol-5-yl]piperidin-4-yl}-3,6-diazabicyclo[3.2.1]octan-3-yl]phenyl}-1H-pyrrolo[2,3-b]pyridine-3-carbonyl)-2,4-difluorophenyl]-3-fluoropyrrolidine-1-sulfonamide] the DC50 (BRAF V600E) was 50 to 500 nM, the Dmax (BRAF V600E) was 35 to 70% and the DC50 (BRAF G466V) was 1 to 10 nM. The Dmax (BRAF G466V) was 35 to 70%.

`O=C1CCC(N2Cc3cc(OC[C@@H]4CCN4c4ccc(-c5cnc6[nH]cc(C(=O)c7c(F)ccc(NS(=O)(=O)N8CC[C@@H](F)C8)c7F)c6c5)cc4)ccc3C2=O)C(=O)N1` (stereo partly drawn) [Compound 17, (3R)-N-[3-(5-{4-[(2S)-2-({[2-(2,6-dioxopiperidin-3-yl)-1-oxo-2,3-dihydro-1H-isoindol-5-yl]oxy}methyl)azetidin-1-yl]phenyl}-1H-pyrrolo[2,3-b]pyridine-3-carbonyl)-2,4-difluorophenyl]-3-fluoropyrrolidine-1-sulfonamide] was tested, and the DC50 (BRAF V600E) was over 500 nM and the DC50 (BRAF G466V) was over 30 nM.

In the case of `O=C1CCC(N2Cc3cc(N4CCC(CN5CCN(c6ncc(-c7cnc8[nH]cc(C(=O)c9c(F)ccc(NS(=O)(=O)N%10CC[C@@H](F)C%10)c9F)c8c7)cn6)CC5)CC4)ccc3C2=O)C(=O)N1` (stereo partly drawn) [Compound 18, (3R)-N-[3-(5-{2-[4-({1-[2-(2,6-dioxopiperidin-3-yl)-1-oxo-2,3-dihydro-1H-isoindol-5-yl]piperidin-4-yl}methyl)piperazin-1-yl]pyrimidin-5-yl}-1H-pyrrolo[2,3-b]pyridine-3-carbonyl)-2,4-difluorophenyl]-3-fluoropyrrolidine-1-sulfonamide], the DC50 (BRAF V600E) is reported as 50 to 500 nM, the Dmax (BRAF V600E) is reported as over 70% and the DC50 (BRAF G466V) is reported as under 1 nM. The Dmax (BRAF G466V) was 35 to 70%.
